Experimental data reported in US20240343740A1, “MACROCYCLIC GLUCAGON-LIKE PEPTIDE 1 RECEPTOR AGONISTS” (Eli Lilly and Company, priority 2021, published 2024).

Experiments:
[1] = molecular target: T1, human GLP-1R (Homo sapiens, UniProt P43220); assay: Human GLP-1 Receptor HEK293 cell cAMP assay, 581 fmol/mg GLP-1R expression density; format: cell-based; design: expressed in transfected cells; host or cells: HEK293 clonal cell line; conditions: HEK293 cell line with 581 fmol/mg expression density of GLP-1R; for EC50: geometric mean, read-out: EC50 nM (SEM, n), intracellular cAMP response, relative EC50; for Emax: percent of maximal response to GLP-1(7-36)NH2, arithmetic mean, read-out: Emax % (SEM, n), intracellular cAMP response
How it was run: (§1)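 HEK293 clonal lines expressing human GLP-1R, 20-point compound curves, 30 min at 37° C in DMEM with 0.1% casein, 250 μM IBMX, 0.5% DMSO. cAMP by HTRF, converted via standard curve to % of maximal human GLP-1(7-36)NH2 response; relative EC50 and Emax from four-parameter logistic fit.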

[2] = molecular target: T1, human GLP-1R; assay: Human GLP-1 Receptor HEK293 cell cAMP assay, 104 fmol/mg GLP-1R expression density; format: cell-based; design: expressed in transfected cells; host or cells: HEK293 clonal cell line; conditions: HEK293 cell line with 104 fmol/mg expression density of GLP-1R; for EC50: geometric mean, read-out: EC50 nM (SEM, n), intracellular cAMP response, relative EC50; for Emax: percent of maximal response to GLP-1(7-36)NH2, arithmetic mean, read-out: Emax % (SEM, n), intracellular cAMP response
How it was run: as §1

T1 sequence (P43220 24-463): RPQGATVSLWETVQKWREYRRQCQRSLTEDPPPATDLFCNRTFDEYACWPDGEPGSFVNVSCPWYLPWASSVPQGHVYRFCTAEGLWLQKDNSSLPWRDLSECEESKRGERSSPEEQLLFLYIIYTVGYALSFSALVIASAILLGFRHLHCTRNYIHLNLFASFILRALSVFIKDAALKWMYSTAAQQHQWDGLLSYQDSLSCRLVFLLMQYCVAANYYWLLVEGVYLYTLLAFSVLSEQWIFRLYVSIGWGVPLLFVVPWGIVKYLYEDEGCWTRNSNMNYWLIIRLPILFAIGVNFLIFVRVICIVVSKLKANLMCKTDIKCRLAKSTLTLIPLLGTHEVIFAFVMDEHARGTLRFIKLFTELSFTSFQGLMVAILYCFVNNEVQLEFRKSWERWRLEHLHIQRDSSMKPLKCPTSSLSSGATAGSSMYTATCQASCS

Compound | EC50 [1] [nM] | Emax [1] [%] | EC50 [2] [nM] | Emax [2] [%]
COc1cc(C(=O)O)cc2c1nc(Cc1cc(F)c3cc1CCOCc1cc(C#N)ccc1COc1cccc-3n1)n2C[C@@H]1CCO1 [Example 44, (S)-2-((5^4-Cyano-1^6-fluoro-3,7-dioxa-2(2,6)-pyridina-1(1,3),5(1,2)-dibenzenacyclononaphane-1^4-yl)methyl)-4-methoxy-1-(oxetan-2-ylmethyl)-1H-benzo[d]imidazole-6-carboxylic acid] | 4.14 | 112 | 16.4 | 85.5
COCCOc1cc(C(=O)O)cc2c1nc(Cc1cc(F)c3cc1COCCc1cc(Cl)cc(F)c1COc1cccc-3n1)n2C[C@@H]1CCO1 [Example 45, (S)-2-((5^4-Chloro-1^6,5^6-difluoro-3,8-dioxa-2(2,6)-pyridina-1(1,3),5(1,2)-dibenzenacyclononaphane-1^4-yl)methyl)-4-(2-methoxyethoxy)-1-(oxetan-2-ylmethyl)-1H-benzo[d]imidazole-6-carboxylic acid] | 2.4 | 122 | 7.57 | 87.9
COCCOc1cc(C(=O)O)cc2c1nc(Cc1ccc3cc1COCCc1nc(ccc1C#N)COc1cccc-3n1)n2C[C@@H]1CCO1 [Example 46, (S)-2-((5^5-Cyano-3,8-dioxa-2,5(2,6)-dipyridina-1(1,3)-benzenacyclononaphane-1^4-yl)methyl)-4-(2-methoxyethoxy)-1-(oxetan-2-ylmethyl)-1H-benzo[d]imidazole-6-carboxylic acid] | 7.23 | 107 | 24.6 | 91.7
COCCOc1cc(C(=O)O)cc2c1nc(Cc1cc(F)c3cc1CCOCc1cc(ccc1Cl)COc1cccc-3n1)n2C[C@@H]1CCO1 [Example 47, (S)-2-((5^4-Chloro-1^6-fluoro-3,7-dioxa-2(2,6)-pyridina-1,5(1,3)-dibenzenacyclononaphane-1^4-yl)methyl)-4-(2-methoxyethoxy)-1-(oxetan-2-ylmethyl)-1H-benzo[d]imidazole-6-carboxylic acid] | 25.1 | 110 | 116 | 108
COCCOc1cc(C(=O)O)cc2c1nc(Cc1cc(F)c3cc1CCOCc1cc(ccc1C#N)COc1cccc-3n1)n2C[C@@H]1CCO1 [Example 48, (S)-2-((5^4-Cyano-1^6-fluoro-3,7-dioxa-2(2,6)-pyridina-1,5(1,3)-dibenzenacyclononaphane-1^4-yl)methyl)-4-(2-methoxyethoxy)-1-(oxetan-2-ylmethyl)-1H-benzo[d]imidazole-6-carboxylic acid] | 11.2 | 108 | 31.5 | 86.8
COCCOc1cc(C(=O)O)cc2c1nc(Cc1ccc3cc1COCCc1cc(C#N)ccc1COc1ccc(F)c-3n1)n2C[C@@H]1CCO1 [Example 49, (S)-2-((5^4-Cyano-2^3-fluoro-3,8-dioxa-2(2,6)-pyridina-1(1,3),5(1,2)-dibenzenacyclononaphane-1^4-yl)methyl)-4-(2-methoxyethoxy)-1-(oxetan-2-ylmethyl)-1H-benzo[d]imidazole-6-carboxylic acid] | 2.33 | 112 | 8.39 | 85.5
COCCOc1cc(C(=O)O)cc2c1nc(Cc1ccc3cc1COCC(F)(F)c1cc(C#N)ccc1COc1cccc-3n1)n2C[C@@H]1CCO1 [Example 50, (S)-2-((5^4-cyano-6,6-difluoro-3.8-dioxa-2(2,6)-pyridina-1(1,3),5(1,2)-dibenzenacyclonaphane-1^4-yl)methyl)-4-(2-methoxyethoxy)-1-(oxatan-2-ylmethyl)-1H-benzo[d]imidazole-6-carboxylic acid] | 38.1 | 115 | 128 | 82.8
COc1cc(C(=O)O)cc2c1nc(Cc1ccc3cc1COCCc1cc(C#N)ccc1COc1ccnc-3n1)n2C[C@@H]1CCO1 [Example 51, (S)-2-((5^4-Cyano-3,8-dioxa-2(2,4)-pyrimidina-1(1,3),5(1,2)-dibenzenacyclononaphane-1^4-yl)methyl)-4-methoxy-1-(oxetan-2-ylmethyl)-1H-benzo[d]imidazole-6-carboxylic acid] | 41 | 96.7 | 152 | 77.1
COCCOc1cc(C(=O)O)cc2c1nc(Cc1ccc3cc1COCCc1cc(C(F)(F)F)ncc1COc1cccc-3n1)n2C[C@@H]1CCO1 [Example 52, (S)-4-(2-Methoxyethoxy)-1-(oxetan-2-ylmethyl)-2-((5^6-(trifluoromethyl)-3,8-dioxa-2(2,6),5(3,4)-dipyridina-1(1,3)-benzenacyclononaphane-1^4-yl)methyl)-1H-benzo[d]imidazole-6-carboxylic acid] | 58.4 | 108 | 153 | 84.3
Cc1nc(CCOc2cc(C(=O)O)cc3c2nc(Cc2ccc4cc2OCCCc2cc(C#N)ccc2COc2cccc-4n2)n3C[C@@H]2CCO2)co1 [Example 53, (S)-2-((5^4-Cyano-3,9-dioxa-2(2,6)-pyridina-1(1,3),5(1,2)-dibenzenacyclononaphane-1^4-yl)methyl)-4-(2-(2-methyloxazol-4-yl)ethoxy)-1-(oxetan-2-ylmethyl)-1H-benzo[d]imidazole-6-carboxylic acid] | 77.8 | 104 | 293 | 58
N#Cc1ccc2c(c1)CCCOc1cc(ccc1Cc1nc3c(OCCNCC(F)(F)F)cc(C(=O)O)cc3n1C[C@@H]1CCO1)-c1cccc(n1)OC2 [Example 54, (S)-2-((5^4-Cyano-3,9-dioxa-2(2,6)-pyridina-1(1,3),5(1,2)-dibenzenacyclononaphane-1^4-yl)methyl)-1-(oxetan-2-ylmethyl)-4-(2-((2,2,2-trifluoroethyl)amino)ethoxy)-1H-benzo[d]imidazole-6-carboxylic acid] | 440 | 49.5 | 654 | 18.3
O=C(O)c1cc(OCCO)c2nc(Cc3ccc4cc3COCCc3cc(Cl)ccc3COc3cccc-4n3)n(C[C@@H]3CCO3)c2c1 [Example 55, (S)-4-[2-Hydroxyethoxy]-2-((5^4-chloro-3,8-dioxa-2(2,6)-pyridina-1(1,3),5(1,2)-dibenzenacyclononaphane-1^4-yl)methyl)-1-(oxetan-2-ylmethyl)-1H-benzo[d]imidazole-6-carboxylic acid] | 8.94 | 113 | 22.8 | 84.8
CN(C)CCOc1cc(C(=O)O)cc2c1nc(Cc1ccc3cc1COCCc1cc(Cl)ccc1COc1cccc-3n1)n2C[C@@H]1CCO1 [Example 56, (S)-2-((5^4-Chloro-3,8-dioxa-2(2,6)-pyridina-1(1,3),5(1,2)-dibenzenacyclononaphane-1^4-yl)methyl)-4-(2-(dimethylamino)ethoxy)-1-(oxetan-2-ylmethyl)-1H-benzo[d]imidazole-6-carboxylic acid] | 55.8 | 85 | 131 | 41.7
CNCCOc1cc(C(=O)O)cc2c1nc(Cc1ccc3cc1COCCc1cc(Cl)ccc1COc1cccc-3n1)n2C[C@@H]1CCO1 [Example 57, (S)-2-((5^4-Chloro-3,8-dioxa-2(2,6)-pyridina-1(1,3),5(1,2)-dibenzenacyclononaphane-1^4-yl)methyl)-4-(2-(methylamino)ethoxy)-1-(oxetan-2-ylmethyl)-1H-benzo[d]imidazole-6-carboxylic acid] | 440 | 76.2 | 1030 | 42.1
COCCOc1cc(C(=O)O)cc2c1nc(Cc1cc(F)c3cc1COCCc1cc(ccc1C#N)COc1cccc-3n1)n2C[C@@H]1CCO1 [Example 58, (S)-2-((5^4-Cyano-1^6-fluoro-3,8-dioxa-2(2,6)-pyridina-1,5(1,3)-dibenzenacyclononaphane-1^4-yl)methyl)-4-(2-methoxyethoxy)-1-(oxetan-2-ylmethyl)-1H-benzo[d]imidazole-6-carboxylic acid] | 0.633 | 109 | 1.62 | 90
CN1CCC(Oc2cc(C(=O)O)cc3c2nc(Cc2ccc4cc2OCCCc2cc(C#N)ccc2COc2cccc-4n2)n3C[C@@H]2CCO2)C1 (stereo partly drawn) [Example 59, 2-((5^4-Cyano-3,9-dioxa-2(2,6)-pyridina-1(1,3),5(1,2)-dibenzenacyclononaphane-1^4-yl)methyl)-4-((1-methylpyrrolidin-3-yl)oxy)-1-(((S)-oxetan-2-yl)methyl)-1H-benzo[d]imidazole-6-carboxylic acid] | 262 | 90.9 | 515 | 48.4
N#Cc1ccc2c(c1)CCOCc1cc(ccc1Cc1nc3c(F)cc(C(=O)O)cc3n1C[C@@H]1CCO1)-c1cccc(n1)OC2 [Example 61, (S)-2-((5^4-cyano-3,8-dioxa-2(2,6)-pyridina-1(1,3),5(1,2)-dibenzenacyclononaphane-1^4-yl)methyl)-4-fluoro-1-(oxetan-2-ylmethyl)-1H-benzo[d]imidazole-6-carboxylic acid] | 18.1 | 110 | 79.1 | 93.2
